Series [1] addresses T1, CDK9/CycT1 (Homo sapiens, UniProt P50750).
T1 construct: Recombinant full-length His-tagged human CDK9 and CycT1; His; purchased Invitrogen PV4131; host or cells: insect cells
Kind of series: CDK9/CycT1 kinase assay (Method 1a, TR-FRET, 10 μM ATP). The following applies: for IC50: Method 1a, 10 μM ATP; for Selectivity CDK9 over CDK2: IC50 (CDK2)/IC50 (CDK9): Methods 1a and 2a, minimal values. It counts as biochemical. From the text: 1a. CDK9/CycT1 Kinase Assay:
CDK9/CycT1-inhibitory activity of compounds of the present invention was quantified employing the CDK9/CycT1 TR-FRET assay as described in the following paragraphs:
Recombinant full-length His-tagged human CDK9 and CycT1, expressed in insect cells and purified by Ni-NTA affinity chromatography, were purchased from Invitrogen (Cat. No PV4131). As substrate for the kinase reaction biotinylated peptide biotin-Ttds-YISPLKSPYKISEG (C-terminus in amid form) was used which can be purchased e.g. from the company JERINI Peptide Technologies (Berlin, Germany). For the assay 50 nl of a 100 fold concentrated solution of the test compound in DMSO was pipetted into a black low volume 384 well microtiter plate (Greiner Bio-One, Frickenhausen, Germany), 2 μl of a solution of CDK9/CycT1 in aqueous assay buffer [50 mM Tris/HCl pH 8.0, 10 mM MgCl2, 1.0 mM dithiothreitol, 0.1 mM sodium ortho-vanadate, 0.01% (v/v) Nonidet-P40 (Sigma)] were added and the mixture was incubated for 15 min at 22° C. to allow pre-binding of the test compounds to the enzyme before the start of the kinase reaction. Then the kinase reaction was started by the addition of 3 μl of a solution of adenosine-tri-phosphate (ATP, […]=> final conc. in the 5 μl assay volume is 10 μM) and substrate (1.67 μM=> final conc. in the 5 μl assay volume is 1 μM) in assay buffer and the resulting mixture was incubated for a reaction time of 25 min at 22° C. The concentration of CDK9/CycT1 was adjusted depending of the activity of the enzyme lot and was chosen appropriate to have the assay in the linear range, typical concentrations were in the range of 1 μg/mL. The reaction was stopped by the addition of 5 μl of a solution of TR-FRET detection reagents (0.2 μM streptavidine-XL665 [Cisbio Bioassays, Codolet, France] and 1 nM anti-RB(pSer807/pSer811)-antibody from BD Pharmingen [#558389] and 1.2 nM LANCE EU-W1024 labeled anti-mouse IgG antibody [Perkin-Elmer, product no. AD0077]) in an aqueous EDTA-solution (100 mM EDTA, 0.2% (w/v) bovine serum albumin in 100 mM HEPES pH 7.5).
The resulting mixture was incubated 1 h at 22° C. to allow the formation of complex between the phosphorylated biotinylated peptide and the detection reagents. Subsequently the amount of phosphorylated substrate was evaluated by measurement of the resonance energy transfer from the Eu-chelate to the streptavidine-XL. Therefore, the fluorescence emissions at 620 nm and 665 nm after excitation at 350 nm was measured in a HTRF reader, e.g. a Rubystar (BMG Labtechnologies, Offenburg, Germany) or a Viewlux (Perkin-Elmer). The ratio of the emissions at 665 nm and at […] was taken as the measure for the amount of phosphorylated substrate. The data were normalised (enzyme reaction without inhibitor=0% inhibition, all other assay components but no enzyme=100% inhibition).

Series [2] is described as follows: Caco-2 permeation assay. It counts as in vitro ADME. The following applies: human, Caco-2, pH 7.2, test compound 2 μM; for efflux ratio at 2 h, 2 μM: read-out: Efflux ratio (Papp B-A/Papp A-B); for Papp A→B at 2 h, 2 μM: read-out: Papp A-B (Mari); for Papp B→A at 2 h, 2 μM: read-out: Papp B-A (Mari). Here is the method:
5. Caco-2 Permeation Assay:
Caco-2 cells (purchased from DSMZ Braunschweig, Germany) were seeded at a density of 4.5×10^4 cells per well on 24 well insert plates, 0.4 µm pore size, and grown for 15 days in DMEM medium supplemented with 10% fetal bovine serum, 1% GlutaMAX (100×, GIBCO), 100 U/mL penicillin, 100 μg/mL streptomycin (GIBCO) and 1% non essential amino acids (100×). Cells were maintained at 37° C. in a humified 5% CO2 atmosphere. Medium was changed every 2-3 day. Before running the permeation assay, the culture medium was replaced by a FCS-free hepes-carbonate transport buffer (pH 7.2). For assessment of monolayer integrity the transepithelial electrical resistance (TEER) was measured. Test compounds were predissolved in DMSO and added either to the apical or basolateral compartment in final concentration of 2 μM in transport buffer. Before and after 2 h incubation at 37° C. samples were taken from both compartments. Analysis of compound content was done after precipitation with methanol by LC/MS/MS analysis. Permeability (Papp) was calculated in the apical to basolateral (A→B) and basolateral to apical (B→A) directions. The apparent permeability was calculated using following equation: Papp=(Vr/Po)(1/S)(P2/t) Where Vr is the volume of medium in the receiver chamber, Po is the measured peak area or height of the test drug in the donor chamber at t=o, S the surface area of the monolayer, P2 is the measured peak area of the test drug in the acceptor chamber after 2 h of incubation, and t is the incubation time. The efflux ratio basolateral (B) to apical (A) was calculated by dividing the Papp B-A by the Papp A-B. In addition the compound recovery was calculated. 6. Investigation of In Vitro Metabolic Stability in Rat Hepatocytes

A short description of series [3]: High throughput determination of aqueous drug solubility from DMSO solution (Method 4a). The conditions noted are these: phosphate buffer, kinetic from dmso stock, pH 6.5, Method 4a. It counts as physicochemical. From the text:
4. Equilibrium Shake Flask Solubility Assay:
4a) High Throughput Determination of Aqueous Drug Solubility (100 Mmolar in DMSO)
The high throughput screening method to determine aqueous drug solubility is based on: Thomas Onofrey and Greg Kazan, Performance and correlation of a 96-well high throughput screening method to determine aqueous drug solubility, http://wwv.millipore.com/publications.nsf/a73664f9f981 af8c852569b9005b4eee/e565516fb76e7435852 56da30052db77/$FILE/AN1731EN00.pdf
The assay was run in a 96-well plate format. Each well was filled with an individual compound.
All pipetting steps were performed using a robot platform.
100 μl of a 10 mmolar solution of drug in DMSO were concentrated by vacuum centrifugation and resolved in 10 μl DMSO. 990 μl phosphate buffer pH 6.5 were added. The content of DMSO amounts to 1%. The multititer plate was put on a shaker and mixed for 24 hrs at room temperature. 150 μl of the suspension were transferred to a filtration plate. After filtration using a vacuum manifold the filtrate was diluted 1:400 and 1:8000. A second microtiter plate with 20 μl of a 10 mM solution of drug in DMSO served for calibration. Two concentrations (0.005 μM and 0.0025 μM) were prepared by dilution in DMSO/water 1:1 and used for calibration. Filtrate and calibration plates were quantified by HPLC-MS/MS.
The areas of sample- and calibration injections were determined by using mass spectromety software (AB SCIEX: Discovery Quant 2.1.3. and Analyst 1.6.1). The calculation of the solubility value (in mg/l) was executed by an inhouse developed Excel macro.

In brackets after ≈: the same amount, converted by molar mass.

T1 sequence (P50750 whole entry): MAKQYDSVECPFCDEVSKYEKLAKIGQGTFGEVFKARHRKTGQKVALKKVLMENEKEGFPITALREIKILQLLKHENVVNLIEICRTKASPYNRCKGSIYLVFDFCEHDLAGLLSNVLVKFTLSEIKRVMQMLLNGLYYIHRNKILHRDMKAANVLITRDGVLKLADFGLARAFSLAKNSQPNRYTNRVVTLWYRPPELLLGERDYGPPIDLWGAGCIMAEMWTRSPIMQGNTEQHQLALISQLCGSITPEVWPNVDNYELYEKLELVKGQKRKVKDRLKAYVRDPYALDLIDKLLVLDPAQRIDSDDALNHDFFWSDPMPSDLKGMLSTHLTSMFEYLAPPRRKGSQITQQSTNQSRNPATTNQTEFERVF
T1 sequence (O60563 whole entry partner): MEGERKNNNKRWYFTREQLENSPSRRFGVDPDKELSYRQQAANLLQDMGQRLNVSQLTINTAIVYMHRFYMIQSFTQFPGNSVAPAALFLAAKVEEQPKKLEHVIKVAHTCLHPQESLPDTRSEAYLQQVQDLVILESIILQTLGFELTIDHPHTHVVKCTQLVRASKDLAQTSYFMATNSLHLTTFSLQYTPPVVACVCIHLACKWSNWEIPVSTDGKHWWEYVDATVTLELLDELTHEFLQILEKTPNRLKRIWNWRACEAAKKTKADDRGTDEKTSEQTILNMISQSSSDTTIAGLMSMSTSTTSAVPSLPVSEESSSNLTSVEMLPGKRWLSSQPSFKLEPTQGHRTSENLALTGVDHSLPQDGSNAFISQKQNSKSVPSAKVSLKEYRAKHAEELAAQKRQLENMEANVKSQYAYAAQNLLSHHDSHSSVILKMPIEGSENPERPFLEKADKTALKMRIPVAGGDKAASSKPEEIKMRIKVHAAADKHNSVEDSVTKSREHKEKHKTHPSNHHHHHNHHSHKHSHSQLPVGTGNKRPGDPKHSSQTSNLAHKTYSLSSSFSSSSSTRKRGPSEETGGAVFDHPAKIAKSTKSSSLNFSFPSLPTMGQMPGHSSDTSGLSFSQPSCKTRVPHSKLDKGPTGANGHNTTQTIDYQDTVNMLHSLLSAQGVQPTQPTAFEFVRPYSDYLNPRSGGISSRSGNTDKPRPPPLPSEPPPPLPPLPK

With `CS(=N)(Cc1cc2nc(c1)OCCCOc1cc(F)ccc1-c1cc(ncc1F)N2)=NCCCO` (racemic) [Example 2, (rac)-3-(2-{[15,19-difluoro-3,4-dihydro-2H,11H-10,6-(azeno)-12,16-(metheno)-1,5,11,13-benzodioxadiazacyclooctadecin-8-yl]methyl}-2-methyl-2λ^6-diazathia-1,2-dien-1-yl)propan-1-ol], in series [1], half-maximal inhibition (IC50) was put at 2.9 nM and the “Selectivity CDK9 over CDK2: IC50 (CDK2)/IC50 (CDK9)” value (from here on “Selectivity CDK9 over CDK2: IC50”) is given as 7.8. Further, in series [2], the efflux ratio at 2 h, 2 μM turned out to be 23.2; the Papp A→B at 2 h, 2 μM amounted to 0.99 ×10⁻⁶ cm/s; the Papp B→A at 2 h, 2 μM worked out at 22.9 ×10⁻⁶ cm/s.

As to `CS(=N)(Cc1cc2nc(c1)OCCCOc1cc(F)ccc1-c1cc(ncc1F)N2)=NC#N` (racemic) [Example 3, (rac)-[{[15,19-difluoro-3,4-dihydro-2H,11H-10,6-(azeno)-12,16-(metheno)-1,5,11,13-benzodioxadiazacyclooctadecin-8-yl]methyl}(imino)methyl-λ^6-sulfanylidene]cyanamide], in series [1], the IC50 worked out at 2.9 nM and the “Selectivity CDK9 over CDK2: IC50” value worked out at 2.1.

Regarding `CN=S(C)(=N)Cc1cc2nc(c1)OCCCOc1cc(F)ccc1-c1cc(ncc1F)N2` (racemic) [Example 4, (rac)-8-[(N,S-dimethylsulfonodiimidoyl)methyl]-15,19-difluoro-3,4-dihydro-2H,11H-10,6-(azeno)-12,16-(metheno)-1,5,11,13-benzodioxadiazacyclooctadecine], in series [1], half-maximal inhibition (IC50) was put at 9.2 nM and the “Selectivity CDK9 over CDK2: IC50” value was determined as 4.1.

Turning to `CS(=N)(Cc1cc2cc(c1)OCCCCOc1cc(F)ccc1-c1nc(ncc1F)N2)=NC1CC1` (racemic) [Example 9, (rac)-9-[(N-cyclopropyl-S-methylsulfonodiimidoyl)methyl]-16,20-difluoro-2,3,4,5-tetrahydro-12H-13,17-(azeno)-11,7-(metheno)-1,6,12,14-benzodioxadiazacyclononadecine], in series [1], inhibition was half-maximal at 3.6 nM (IC50) and the “Selectivity CDK9 over CDK2: IC50” value was 39.7. This compound showed a thermodynamic solubility at 24 h in series [3] of 70 µg/mL (≈ 140 µM).

Regarding `CS(=N)(=N)Cc1cc2nc(c1)OCCCOc1cc(F)ccc1-c1cc(ncc1F)N2` [Example 1, 15,19-difluoro-8-[(S-methylsulfonodiimidoyl)methyl]-3,4-dihydro-2H,11H-10,6-(azeno)-12,16-(metheno)-1,5,11,13-benzodioxadiazacyclooctadecine], in series [1], half-maximal inhibition (IC50) was put at 3.3 nM and the “Selectivity CDK9 over CDK2: IC50” value was 5.0. In addition, in series [2], the efflux ratio at 2 h, 2 μM is 1.4; the Papp A→B at 2 h, 2 μM was 6.24 ×10⁻⁶ cm/s; the Papp B→A at 2 h, 2 μM is 8.92 ×10⁻⁶ cm/s.

As to `CS(=N)(=N)Cc1cc2cc(c1)OCCCCOc1cc(F)ccc1-c1nc(ncc1F)N2` [Example 5, 16,20-difluoro-9-[(S-methylsulfonodiimidoyl)methyl]-2,3,4,5-tetrahydro-12H-13,17-(azeno)-11,7-(metheno)-1,6,12,14-benzodioxadiazacyclononadecine], in series [1], the IC50 was determined as 3.4 nM and the “Selectivity CDK9 over CDK2: IC50” value is on record as 27.2. The same compound yielded a solubility (thermodynamic) at 24 h in series [3] of 78 µg/mL (≈ 170 µM). Also, in series [2], the efflux ratio at 2 h, 2 μM was 5; the Papp A→B at 2 h, 2 μM came to 4.82 ×10⁻⁶ cm/s; the Papp B→A at 2 h, 2 μM is 24.1 ×10⁻⁶ cm/s.

`CS(=N)(=N)Cc1cc2cc(c1)OCCCCOc1c(ccc(F)c1F)-c1nc(ncc1F)N2` [Example 6, 16,20,21-trifluoro-9-[(S-methylsulfonodiimidoyl)methyl]-2,3,4,5-tetrahydro-12H-13,17-(azeno)-11,7-(metheno)-1,6,12,14-benzodioxadiazacyclononadecine]: in series [1], the midpoint of inhibition, the IC50, lay at 8.2 nM and the “Selectivity CDK9 over CDK2: IC50” value amounted to 174. The solubility (thermodynamic) at 24 h in series [3] was 14 µg/mL (≈ 29.3 µM). Also, in series [2], the efflux ratio at 2 h, 2 μM was 4.8; the apparent permeability from apical to basolateral (Papp A→B) at 2 h, 2 μM came out at 4.64 ×10⁻⁶ cm/s; the Papp B→A at 2 h, 2 μM worked out at 22.3 ×10⁻⁶ cm/s.

In the case of `CS(=N)(=N)Cc1cc2cc(c1)OCCCCOc1c(F)cccc1-c1nc(ncc1F)N2` [Example 7, 16,21-difluoro-9-[(S-methylsulfonodiimidoyl)methyl]-2,3,4,5-tetrahydro-12H-13,17-(azeno)-11,7-(metheno)-1,6,12,14-benzodioxadiazacyclononadecine], in series [1], the IC50 was 5.6 nM and the “Selectivity CDK9 over CDK2: IC50” value turned out to be 209.

On to `CS(=N)(=N)Cc1cc2nc(c1C#N)OCCCOc1cc(F)ccc1-c1cc(ncc1F)N2` [Example 8, 15,19-difluoro-8-[(S-methylsulfonodiimidoyl)methyl]-3,4-dihydro-2H,11H-10,6-(azeno)-12,16-(metheno)-1,5,11,13-benzodioxadiazacyclooctadecine-7-carbonitrile], for which, in series [1], half-maximal inhibition (IC50) required 3.7 nM and the “Selectivity CDK9 over CDK2: IC50” value is on record as 19.2.

(Values after patent publication US10717749B2, “Macrocyclic sulfondiimine compounds” (BAYER PHARMA AKTIENGESELLSCHAFT, priority 2015, dated 2020).)
